Reference: PMC7542364 (mBio, 2020)

Key:
[1] = biological target: HemATN (HemAT sensing domain, residues 1 to 178) (Bacillus subtilis, UniProt O07621); details: 50 uM protein, 3 mM ethanol, modified PBS pH 8.0, 10% D2O, 298 K; heme not involved (UV spectra)
[2] = biological target: McpBC (McpB cytoplasmic region, residues 305 to 662) (Bacillus subtilis, UniProt P39215); details: 50 uM protein, 3 mM ethanol, PBS in D2O pH 7.4, 298 K
McpBC (McpB cytoplasmic region, residues 305 to 662), sequence (P39215 305-662): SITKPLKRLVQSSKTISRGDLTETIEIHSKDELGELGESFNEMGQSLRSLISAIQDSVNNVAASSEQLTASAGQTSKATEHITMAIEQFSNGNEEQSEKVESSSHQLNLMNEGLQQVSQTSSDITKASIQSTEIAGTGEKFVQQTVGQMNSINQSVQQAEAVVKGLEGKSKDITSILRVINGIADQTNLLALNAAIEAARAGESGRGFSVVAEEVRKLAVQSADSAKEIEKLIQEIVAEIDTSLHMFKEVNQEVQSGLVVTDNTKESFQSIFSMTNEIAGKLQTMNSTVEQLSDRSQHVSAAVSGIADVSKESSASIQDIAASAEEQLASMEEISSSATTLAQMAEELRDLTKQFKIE

HemATN (HemAT sensing domain, residues 1 to 178), sequence (O07621 1-178): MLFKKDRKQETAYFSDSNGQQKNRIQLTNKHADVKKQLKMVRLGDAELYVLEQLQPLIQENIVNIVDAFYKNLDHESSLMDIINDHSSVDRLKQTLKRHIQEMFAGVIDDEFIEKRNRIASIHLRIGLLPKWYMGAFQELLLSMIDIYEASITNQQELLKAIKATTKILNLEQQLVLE

In the case of `CCO` [ethanol], the “STD/1H area ratio, -CH3 (-CH2 0.85)” value [1] is reported as 0.27 and the “saturation fraction (STD/1H area ratio, -CH3)” value [2] is reported as 0.23.
